Test results from PubChem BioAssay AID1671331.

Biological target: Serine/threonine-protein kinase Nek6 (Homo sapiens) (UniProt Q9HC98)
Experiment: inhibition of NEK6 serine/threonine kinase activity – biochemical, Z'-LYTE FRET, direct format, recombinant human, dose response (AID 1671331)

Sequence of Serine/threonine-protein kinase Nek6 (Homo sapiens) (Q9HC98 whole entry, looked up): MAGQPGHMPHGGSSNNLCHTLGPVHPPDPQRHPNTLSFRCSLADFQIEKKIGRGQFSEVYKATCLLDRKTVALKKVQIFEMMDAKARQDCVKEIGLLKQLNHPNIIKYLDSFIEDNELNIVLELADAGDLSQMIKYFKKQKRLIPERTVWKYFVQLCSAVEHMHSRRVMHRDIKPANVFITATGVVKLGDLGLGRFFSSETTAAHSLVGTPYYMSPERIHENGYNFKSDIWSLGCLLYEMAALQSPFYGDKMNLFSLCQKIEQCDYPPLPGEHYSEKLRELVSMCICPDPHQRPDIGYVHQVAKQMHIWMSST

Work on `CN1C(=O)C2(Cc3cn(C45CC67SSC(CO)(C(=O)N6C4Nc4ccccc45)N(C)C7=O)c4ccccc34)SSC1(CO)C(=O)N2C` (stereo unspecified) yielded an IC50 of 59 nM.
